Structures are written as SMILES. Activity calls are given as the source filed them. The rule behind the calls is not given here.

The subject of series [1] is Mus musculus. In words: Immunostimulatory activity in BALB/c mouse assessed as increase in serum CXCL-1 level at 200 nmol, im and measured after 24 hrs by ELISA. The class given is functional, organism-based.
The subject of series [2] is BMDC. Put plainly: Vaccine adjuvant activity in Balb/c mouse BMDC assessed as induction of Ca2+ influx at 10 uM by Fura-2/8-AM dye based fluorescence analysis (reference value: 0%). The class given is functional.
The next series has as its system THP-1. In words: Vaccine adjuvant activity in human THP-1 cells expressing CD63-Turbo-luciferase and CD9-Emerald green fluorescent protein reporter assessed as extracellular vesicle release by measuring reporter activation at 10 uM incubated for 48 hrs by TurboLuc luciferase based chemiluminescence assay (reference value: 0%). The format is functional.
Series [3] can be described thus: Toxicity in ovalbumin-immunized BALB/c mouse assessed as behavioural changes at 200 nmol, im co-administered with ovalbumin on day 0 and day 21. The format is organism-based. Conditions: in vivo, 528 h, time 22 day.
The subject of series [4] is Mus musculus. Put plainly: Immunostimulatory activity in BALB/c mouse assessed as increase in serum CXCL-1 level at 200 nmol, im and measured after 2 to 6 hrs by ELISA. The class given is functional, organism-based. Conditions: time 2-6 hrs.
Series [5] has as its system Mus musculus. Put plainly: Vaccine adjuvant activity against ovalbumin-immunized BALB/c mouse assessed as increase in anti-OVA specific IgG titer in serum at 200 nmol, im co-administered with ovalbumin on day 0 and day 21 and measured on day 28 by ELISA. The format is functional, organism-based. Conditions: time 29.0 day.
A short description of series [6]: Cytotoxicity against Balb/c mouse BMDC assessed as cell viability at 10 uM incubated for 20 hrs by MTT assay (reference value: 100 +/-0.6%). The class given is toxicity, cell-based. Conditions: BMDC (bone marrow-derived dendritic cells), read-out: Activity.
Series [7] in a line: Toxicity in ovalbumin-immunized BALB/c mouse assessed as weight loss at 200 nmol, im co-administered with ovalbumin on day 0 and day 21. The format is organism-based. Conditions: in vivo, 528 h, time 22 day.
The subject of series [8] is BMDC. Put plainly: Vaccine adjuvant activity in Balb/c mouse BMDC assessed as increase in IL-12 production at 10 uM incubated for 20 hrs by ELISA (reference value: 1.35 +/-0.1 ng/ml). The format is functional.
Series [9] relates to Mus musculus. In words: Vaccine adjuvant activity against ovalbumin-immunized BALB/c mouse assessed as induction of antigen-specific Th2 immune responses by measuring increase in anti-OVA specific IgG1 titer in serum at 200 nmol, im co-administered with ovalbumin on day 0 and day 21 and measured on day 28 by ELISA. The format is functional, organism-based. Conditions: time 29.0 day.

In series [10] the test system is Mus musculus. Put plainly: Immunostimulatory activity in BALB/c mouse assessed as increase in serum CXCL-10 level at 1 ug, im and measured after 6 hrs by multiplex Luminex beads assay. The format is functional, organism-based. Conditions: dose 1.0 µg.
The subject of series [11] is Mus musculus. In words: Immunostimulatory activity in BALB/c mouse assessed as increase in serum CCL-2 level at 1 ug, im and measured after 2 hrs by multiplex Luminex beads assay. The format is functional, organism-based. Conditions: dose 1.0 µg.
Series [12] concerns Mus musculus. Put plainly: Immunostimulatory activity in BALB/c mouse assessed as increase in serum CXCL-1 level at 1 ug, im and measured after 24 hrs by ELISA. The class given is functional, organism-based. Conditions: dose 1.0 µg.
The test system of series [13] is Mus musculus. In words: Immunostimulatory activity in BALB/c mouse assessed as increase in serum CCL-4 level at 1 ug, im and measured after 2 hrs by multiplex Luminex beads assay. The format is functional, organism-based. Conditions: dose 1.0 µg.
In series [14] the test system is Mus musculus. Put plainly: Immunostimulatory activity in BALB/c mouse assessed as increase in serum IL-6 level at 1 ug, im and measured after 2 hrs by multiplex Luminex beads assay. The format is functional, organism-based. Conditions: dose 1.0 µg.
Series [15] has as its system Mus musculus. In words: Immunostimulatory activity in BALB/c mouse assessed as increase in serum CXCL-1 level at 1 ug, im and measured after 2 hrs by ELISA. The format is functional, organism-based. Conditions: dose 1.0 µg.
The subject of series [16] is Mus musculus. Put plainly: Immunostimulatory activity in BALB/c mouse assessed as increase in serum CCL-2 level at 1 ug, im and measured after 24 hrs by multiplex Luminex beads assay. The class given is functional, organism-based. Conditions: dose 1.0 µg.
Series [17] has as its system Mus musculus. In words: Immunostimulatory activity in BALB/c mouse assessed as increase in serum CCL-4 level at 1 ug, im and measured after 24 hrs by multiplex Luminex beads assay. The class given is functional, organism-based. Conditions: dose 1.0 µg.
Series [18] has as its system Mus musculus. Put plainly: Immunostimulatory activity in BALB/c mouse assessed as increase in serum IL-6 level at 1 ug, im and measured after 24 hrs by multiplex Luminex beads assay. The format is functional, organism-based. Conditions: dose 1.0 µg.

Consider `CCOC(=O)c1c(NS(=O)(=O)c2cccc3nsnc23)sc(C)c1C`, for which the result in the series with Mus musculus [1] was inactive. Besides, the Activity in the series on BMDC [2] was 100%; in the series with THP-1 it was 100%; in series [3] it was “Non-Toxic”; in [7], “Non-Toxic”; in the series on BMDC [8], 1.78 ng/mL. Moreover, the result in the series with Mus musculus [4] and in the series with Mus musculus [5] was Active. The viability at 20 h, 10 µM in [6] is 114%.
In the case of `CCOC(=O)c1c(NS(=O)(=O)c2cccc3nsnc23)sc(-c2ccccc2)c1C`, the result with Mus musculus [1] was inactive. In addition, the result in the series on Mus musculus [9], with Mus musculus [4] and in the series on Mus musculus [5] was Active. Moreover, the Activity was 115.7% in the series with BMDC [2]; 338.9% with THP-1; “Non-Toxic” in series [3]; “Non-Toxic” in series [7]; 3.79 ng/mL in the series with BMDC [8]. Besides, the viability at 20 h, 10 µM in [6] was 136%.
Consider `CCOC(=O)c1c(NS(=O)(=O)c2cccc3n[se]nc23)sc(C)c1C`, for which the outcome in the series with Mus musculus [9] and with Mus musculus [5] was Active. Also, the Activity in the series with BMDC [2] is 147.5%; with THP-1, 210.4%; in [3], “Non-Toxic”; in series [7], “Non-Toxic”; in the series with BMDC [8], 3.11 ng/mL. For the same compound, the viability at 20 h, 10 µM in series [6] was found to be 109%.
For `CCOC(=O)c1c(NS(=O)(=O)c2cccc3ccccc23)sc(C)c1C`, the Activity is -14.1% in the series on BMDC [2]; 5.2% with THP-1; “Non-Toxic” in [3]; “Non-Toxic” in [7]; 1.37 ng/mL in the series with BMDC [8]. The viability at 20 h, 10 µM in [6] came out at 111%.
Regarding `Cc1sc(NS(=O)(=O)c2cccc3nsnc23)c(-c2nc(C#N)no2)c1C`, the Activity with BMDC [2] was -7%; in the series on THP-1 it was 1.5%; in [3], “Non-Toxic”; in [7], “Non-Toxic”; in the series with BMDC [8], 1.59 ng/mL. Further, in the series with Mus musculus [5], the outcome was inactive. Further, the viability at 20 h, 10 µM in series [6] worked out at 97.6%.
`CCOC(=O)c1c(NS(=O)(=O)c2ccccc2)sc(C)c1C`: the Activity in the series with BMDC [2] was -10.9%; in the series on THP-1 it was 0.7%; in the series with BMDC [8] it was 1.16 ng/mL. For the same compound, the result in the series with Mus musculus [5] was inactive. For the same compound, the viability at 20 h, 10 µM in [6] came out at 102%.
Regarding `CCOC(=O)c1c(NC(=O)c2cccc3nsnc23)sc(C)c1C`, the result with Mus musculus [1] was inactive. The Activity in the series with BMDC [2] is -5.4%; in the series on THP-1, -0.4%; in the series with BMDC [8], 1.37 ng/mL. The result in the series with Mus musculus [4] was Active. Also, the viability at 20 h, 10 µM in [6] was found to be 59.1%.
Turning to `CCCCCCCCCCCCCC(=O)O[C@H](CCCCCCCCCCC)CC(=O)N[C@H]1[C@H](OC[C@H]2O[C@H](O)[C@H](NC(=O)C[C@H](O)CCCCCCCCCCC)[C@@H](OC(=O)C[C@H](O)CCCCCCCCCCC)[C@@H]2O)O[C@H](CO)[C@@H](OP(=O)(O)O)[C@@H]1OC(=O)C[C@@H](CCCCCCCCCCC)OC(=O)CCCCCCCCCCCCC`, the outcome in the series with Mus musculus [10], in the series on Mus musculus [11], in the series on Mus musculus [13], with Mus musculus [14] and with Mus musculus [15] was Active. Also, the outcome in the series with Mus musculus [12], in the series on Mus musculus [16], with Mus musculus [17] and in the series with Mus musculus [18] was inactive.
As for `Cc1sc(NS(=O)(=O)c2cccc3nsnc23)c(C(=O)OC(C)(C)C)c1C`, the values for the Activity with BMDC [2], with THP-1 and in the series with BMDC [8] were 136.7%, 128.8% and 3.17 ng/mL, respectively. The viability at 20 h, 10 µM in [6] is 118%.
The matching figures for `COC(=O)c1c(NS(=O)(=O)c2cccc3nsnc23)sc(C)c1C`: 83.6%, 30.1%, 1.75 ng/mL and 114%.
With `CCOC(=O)c1c(NS(=O)(=O)c2cccc3nsnc23)sc2c1CCCC2`, the Activity in the series on BMDC [2] was found to be 102.1%; in the series with THP-1, 156.9%; in the series on BMDC [8], 1.83 ng/mL. Further, in [6], the viability at 20 h, 10 µM turned out to be 114%.
For the compound `Cc1cc(NS(=O)(=O)c2cccc3nsnc23)sc1C`, the results for the Activity in the series with BMDC [2], in the series on THP-1 and in the series on BMDC [8] were -11.4%, -0.9% and 1.4 ng/mL, respectively. The viability at 20 h, 10 µM in [6] was 113%.
As for `CCOC(=O)c1c(NS(=O)(=O)c2cccc3nccnc23)sc(C)c1C`, the result in the series with Mus musculus [9] and with Mus musculus [5] was Active. The Activity in the series on BMDC [2] is 122%; in the series with THP-1, 113.3%; in series [3], “Non-Toxic”; in series [7], “Non-Toxic”; in the series on BMDC [8], 4.12 ng/mL. Moreover, the viability at 20 h, 10 µM in [6] stood at 181%.
Regarding `CCOC(=O)c1c(NS(=O)(=O)c2cccc3nsnc23)sc(-c2cccs2)c1C`, the Activity in the series on BMDC [2] is 100.6%; with THP-1, 17.9%; in the series on BMDC [8], 1.03 ng/mL. Further, the viability at 20 h, 10 µM in series [6] was found to be 77%.
The matching figures for `CCOC(=O)c1c(N(C)S(=O)(=O)c2cccc3nsnc23)sc(C)c1C`: -39.3%, -2%, 1.19 ng/mL and 108%.
As to `Cc1sc(NS(=O)(=O)c2cccc3nsnc23)c(C(=O)OC2CCCCC2)c1C`, the result with Mus musculus [1] was inactive. Moreover, the result with Mus musculus [9], in the series on Mus musculus [4] and with Mus musculus [5] was Active. In addition, the Activity in the series on BMDC [2] was 177.8%; with THP-1, 213%; in series [3] it was “Non-Toxic”; in series [7] it was “Non-Toxic”; in the series on BMDC [8] it was 3.08 ng/mL. Also, the viability at 20 h, 10 µM in series [6] was 102%.
For `CCOC(=O)c1c(NS(=O)(=O)c2cccc3nn[nH]c23)sc(C)c1C`, the Activity with BMDC [2] was -9.6%; in the series with THP-1, -0.7%; with BMDC [8], 2.11 ng/mL. Also, the viability at 20 h, 10 µM in series [6] worked out at 102%.
The matching figures for `CCOC(=O)c1c(NS(=O)(=O)c2ccc3nsnc3c2)sc(C)c1C`: -12.7%, 0.2%, 0.63 ng/mL and 93.1%.
The matching figures for `Cc1sc(NS(=O)(=O)c2cccc3nsnc23)c(C(=O)OCc2ccccc2)c1C`: 175.5%, 169.9%, 2.74 ng/mL and 128%.
On to `CCOC(=O)c1c(NS(=O)(=O)c2cccc3nsnc23)sc(-c2ccccn2)c1C`, for which the Activity with BMDC [2] amounted to 8.1%; with THP-1, 30.5%; with BMDC [8] it was 1.01 ng/mL. For the same compound, the viability at 20 h, 10 µM in [6] was 68.1%.
For the compound `CCOC(=O)c1c(NS(=O)(=O)c2cccc3nsnc23)sc(-c2ccco2)c1C`, the Activity with BMDC [2] came out at 134.2%; in the series on THP-1, 67.1%; with BMDC [8], 2.56 ng/mL. In addition, in series [6], the viability at 20 h, 10 µM was found to be 98.7%.

The values are drawn from ChEMBL document CHEMBL5614396, “Structure-Activity Relationship Studies in Benzothiadiazoles as Novel Vaccine Adjuvants” (J Med Chem, 2024).
